The values that follow come from PMC6284057, “Combined Antibacterial Effects of Goat Cathelicidins With Different Mechanisms of Action” (Frontiers in Microbiology, 2018).

No end group written: not given here.

The subject of data set [1] is P. aeruginosa (XDR CI 1049). The experiment in a line: microbe, parasite or virus in culture. The conditions noted are these: Table S2, XDR clinical isolate; NaCl content of medium not stated; read-out: Minimum inhibitory concentration. The format is cell-based, Pseudomonas aeruginosa. The procedure:
(§1) Antimicrobial assay was performed as described previously ([Panteleev et al., 2017b]). Briefly, mid-log phase bacterial test cultures were diluted with the 2× Mueller-Hinton broth (MH, Sigma) supplemented with 1.8% NaCl or without it so that to reach a final cell concentration of 10^6 CFU/ml. 50 μl aliquots of the obtained bacterial suspension were added to 50 μl of the peptide solutions serially diluted with 0.1% water solution of bovine serum albumin (BSA) in 96-well flat-bottom polystyrene microplates (Eppendorf #0030730011). After incubation at 37°C and 900 rpm for 24 h the minimum inhibitory concentrations (MIC) were determined as the lowest peptide concentrations that prevented growth of a test microorganism observed as visible turbidity. The results were expressed as the median values determined on the basis of at least three independent experiments performed in triplicate.

Data set [2] has as its system K. pneumoniae (XDR CI 1056). The data set is described as follows: microbe, parasite or virus in culture. The format is cell-based, Klebsiella pneumoniae. The note with it: Table S2, XDR clinical isolate; NaCl content of medium not stated; read-out: Minimum inhibitory concentration. How it is done: as §1
Data set [3] concerns E. coli (CI 214). It is filed as cell-based, Escherichia coli. The conditions noted are these: CI 214, 24 h. The essentials: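 Serial peptide dilutions (0.1% BSA diluent) were challenged with an equal part of mid-log culture in 2× MH broth, ±1.8% NaCl, giving 10^6 CFU/ml. Incubation: 24 h, 37°C, 900 rpm. Reported MIC = median, ≥3 experiments.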
The subject of data set [4] is mammalian cell lines (HEK293T, HEF). The data set is described as follows: Cytotoxicity (MTT assay). The format is cell-based, human. The conditions noted are these: HEK293T and HEF, 24 h incubation. The procedure:
Hemolytic activity of the peptides was tested against the fresh suspension of human red blood cells (hRBC) using the hemoglobin release assay as described previously ([Panteleev et al., 2016]). Three experiments were performed with the hRBC from blood samples obtained from independent donors. The obtained data were represented as average means with standard deviations. The cytotoxicity of the peptides against HEK293T (transformed human embryonic kidney cells) and HEF (human embryonic fibroblasts) cell lines was studied using the colorimetric 3-(4,5-dimethylthiazol-2-yl)-2,5-diphenyltetrazolium bromide (MTT) dye reduction assay according to ([Panteleev and Ovchinnikova, 2017]). Three independent experiments were performed for each peptide. Half maximal inhibitory concentration (IC50) values were estimated as described previously ([Kuzmin et al., 2018]).
(Tetrazolium dyes change colour on reduction, which living cells bring about.)

Data set [5] deals with E. faecalis ATCC 29212. It is filed as cell-based, Enterococcus faecalis. The note with it: ATCC 29212, 24 h.
Description: Briefly, mid-log phase bacterial test cultures were diluted with the 2× Mueller-Hinton broth (MH, Sigma) supplemented with 1.8% NaCl or without it so that to reach a final cell concentration of 10^6 CFU/ml. 50 μl aliquots of the obtained bacterial suspension were added to 50 μl of the peptide solutions serially diluted with 0.1% water solution of bovine serum albumin (BSA) in 96-well flat-bottom polystyrene microplates (Eppendorf #0030730011). […] The results were expressed as the median values determined on the basis of at least three independent experiments performed in triplicate.

With GRFKRFRKKLKRLWHKVGPFVGPILHY [ChMAP-28], the MIC in data set [1] was 0.5 µM; in data set [2], 0.125 µM.
In turn, “RRLRPRRPRLPRPRPRPRPRPR [mini-ChBac7.5Nα]” had an MIC in data set [3] of 4 µM. Further, the “concentrations at which cytotoxic activity was shown” value in data set [4] is over 25 µM. In data set [5], this sequence had a Minimum inhibitory concentration of over 32 µM.
